Source: ChEMBL document CHEMBL1201862, “PubChem BioAssay data set” (2004)
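Five concentrations, 48 hours, 96-well plates. The concentration for 50% growth inhibition is given as GI50.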 Calls of active or inactive are those of the source. Cut-off read from the data, not from the text of the source: active = GI50 up to about 1.1 µM and inactive = higher.

What was measured:
Assay in all cases: NCI anticancer screen, dose series, 48 h
Hs-578T = tested on: Hs-578T
IGROV-1 = tested on: IGROV-1
TK-10 = tested on: TK-10
SW-620 = tested on: SW-620
NCI-H226 = tested on: NCI-H226
CCRF-CEM = tested on: CCRF-CEM
HT-29 = tested on: HT-29
Malme-3M = tested on: Malme-3M
RXF 393 = tested on: RXF 393
A549 = tested on: A549
A498 = tested on: A498
HCC 2998 = tested on: HCC 2998
U-251 = tested on: U-251
NCI-H23 = tested on: NCI-H23
NCI-H460 = tested on: NCI-H460
MOLT-4 = tested on: MOLT-4
SK-MEL-28 = tested on: SK-MEL-28
SK-MEL-5 = tested on: SK-MEL-5

| SMILES | GI50 (Hs-578T) | GI50 (IGROV-1) | GI50 (TK-10) | GI50 (SW-620) | GI50 (NCI-H226) | GI50 (CCRF-CEM) | GI50 (HT-29) | GI50 (Malme-3M) | GI50 (RXF 393) | GI50 (A549) | GI50 (A498) | GI50 (HCC 2998) | GI50 (U-251) | GI50 (NCI-H23) | GI50 (NCI-H460) | GI50 (MOLT-4) | GI50 (SK-MEL-28) | GI50 (SK-MEL-5) |
| --- | --- | --- | --- | --- | --- | --- | --- | --- | --- | --- | --- | --- | --- | --- | --- | --- | --- | --- |
| O=C(O)c1nc(-c2ccccn2)c(-c2ccccn2)nc1C(=O)O | 19.1 µM (inactive) | 3.5 µM (inactive) | 3.48 µM (inactive) | 3.26 µM (inactive) | 1.7 µM (inactive) | 2.44 µM (inactive) | 2.7 µM (inactive) | 1.66 µM (inactive) | 2.31 µM (inactive) | 1.12 µM (inactive) | 1.61 µM (inactive) | 0.773 µM (active) | 1.77 µM (inactive) | 5.3 µM (inactive) | 0.719 µM (active) | 2.3 µM (inactive) | 1.2 µM (inactive) | 1.28 µM (inactive) |
| COC(=O)C1=C(OC(=O)/C(=C/c2ccc(Cl)cc2Cl)c2ccc(Cl)cc2Cl)C(C(=O)OC)[C@@]2(O)[C@@H](C(=O)OC)[C@H](C)C[C@@H]1[C@@H]2C(=O)OC (some centres undefined) | > 100 µM (inactive) | > 100 µM (inactive) | > 100 µM (inactive) | > 100 µM (inactive) | > 100 µM (inactive) | 88.5 µM (inactive) | > 100 µM (inactive) | > 100 µM (inactive) | 61.8 µM (inactive) | 13.5 µM (inactive) | > 100 µM (inactive) | > 100 µM (inactive) | > 100 µM (inactive) | > 100 µM (inactive) | > 100 µM (inactive) | > 100 µM (inactive) | > 100 µM (inactive) | > 100 µM (inactive) |
| Cc1cc(=O)n2nc(SCc3ccccc3)sc2n1 | 25.4 µM (inactive) | > 100 µM (inactive) | 34.4 µM (inactive) | > 100 µM (inactive) | > 100 µM (inactive) | > 100 µM (inactive) | > 100 µM (inactive) | > 100 µM (inactive) | 60.3 µM (inactive) | > 100 µM (inactive) | > 100 µM (inactive) | > 100 µM (inactive) | > 100 µM (inactive) | > 100 µM (inactive) | > 100 µM (inactive) | 46.5 µM (inactive) | > 100 µM (inactive) | 43.2 µM (inactive) |
| CN(C)CCNC(=O)c1ccc(NCCCN(C)CCCNc2ccc3c(=O)n(CCN(C)C)c(=O)n4c5ccccc5c(=O)c2c34)c2c(O)c3ccccc3nc12 | 0.0285 µM (active) | < 0.01 µM (active) | 0.0471 µM (active) | < 0.01 µM (active) | < 0.0214 µM (active) | < 0.01 µM (active) | < 0.01 µM (active) | 0.0271 µM (active) | 0.075 µM (active) | < 0.01 µM (active) | 0.0759 µM (active) | < 0.01 µM (active) | < 0.01 µM (active) | < 0.0146 µM (active) | < 0.01 µM (active) | < 0.01 µM (active) | 0.234 µM (active) | 0.0617 µM (active) |
| C=C1C2CC3CCC2C(OC(=O)c2ccccc2C(=O)O)C13 (centres undefined) | > 100 µM (inactive) | > 100 µM (inactive) | > 100 µM (inactive) | > 100 µM (inactive) | > 100 µM (inactive) | > 100 µM (inactive) | > 100 µM (inactive) | > 100 µM (inactive) | > 100 µM (inactive) | > 100 µM (inactive) | > 100 µM (inactive) | > 100 µM (inactive) | > 100 µM (inactive) | > 100 µM (inactive) | > 100 µM (inactive) | > 100 µM (inactive) | > 100 µM (inactive) | > 100 µM (inactive) |
| Cn1c(=O)c2nc(CCCCc3nc4ccccc4[nH]3)[nH]c2n(C)c1=O | 30.3 µM (inactive) | > 100 µM (inactive) | > 100 µM (inactive) | > 100 µM (inactive) | 78.3 µM (inactive) | > 100 µM (inactive) | > 100 µM (inactive) | > 100 µM (inactive) | > 100 µM (inactive) | > 100 µM (inactive) | > 100 µM (inactive) | > 100 µM (inactive) | > 100 µM (inactive) | > 100 µM (inactive) | > 100 µM (inactive) | > 100 µM (inactive) | > 100 µM (inactive) | > 100 µM (inactive) |
| CN(C)/C=N/NC(=O)/C(C#N)=C/N(C)C | > 100 µM (inactive) | > 100 µM (inactive) | > 100 µM (inactive) | > 100 µM (inactive) | > 100 µM (inactive) | > 100 µM (inactive) | > 100 µM (inactive) | 75.3 µM (inactive) | > 100 µM (inactive) | > 100 µM (inactive) | > 100 µM (inactive) | > 100 µM (inactive) | > 100 µM (inactive) | > 100 µM (inactive) | > 100 µM (inactive) | > 100 µM (inactive) | > 100 µM (inactive) | > 100 µM (inactive) |
| CCOC(=O)c1sc2nc(SC)nc3c2c1N=CN3c1ccccc1Cl | 5.58 µM (inactive) | 68.1 µM (inactive) | > 100 µM (inactive) | > 100 µM (inactive) | > 100 µM (inactive) | 65.3 µM (inactive) | > 100 µM (inactive) | 35 µM (inactive) | 18.1 µM (inactive) | 71.3 µM (inactive) | 10.1 µM (inactive) | > 100 µM (inactive) | 21.3 µM (inactive) | 92.3 µM (inactive) | > 100 µM (inactive) | 61.7 µM (inactive) | > 100 µM (inactive) | 52 µM (inactive) |
